Experimental data reported in patent publication US12077503B2, “Substituted cyclic amides and their use as herbicides” (FMC CORPORATION, priority 2015, dated 2024).

Legend:
Assay type in all cases: in vivo
[1] = system: redroot pigweed (Amaranthus retroflexus); assay: Test G Post-Emergence Protocol; settings: Amaranthus retroflexus, post-emergence, 312 h, read-out: Pigweed, Redroot damage rating; for pest or weed control at 15.625 g/ha: 15.625 g ai/ha, evaluated after 13 days (100=total damage to plant; 0=no damage to plant); for pest or weed control at 62.5 g/ha: 62.5 g ai/ha; for pest or weed control at 62.5 g/ha / pest or weed control at 250 g/ha: evaluated after 13 days, 100=total damage to plant, 0=no damage to plant; for pest or weed control at 250 g/ha: 250 g ai/ha
How it was run: (§1)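 Values are percent visual injury at 13 days after treatment (0 none, 100 total). Treatment was a post-emergence spray at 15.625, 62.5 or 250 g/ha on 8-day-old pot plants kept at 24/16 °C.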

[2] = system: barnyardgrass (Echinochloa crus-galli); assay: Test G Post-Emergence Protocol; settings: Echinochloa crus-galli, post-emergence, 312 h, read-out: Barnyardgrass damage rating; for pest or weed control at 15.625 g/ha: 15.625 g ai/ha, evaluated after 13 days (100=total damage to plant; 0=no damage to plant); for pest or weed control at 62.5 g/ha: 62.5 g ai/ha; for pest or weed control at 62.5 g/ha / pest or weed control at 250 g/ha: evaluated after 13 days, 100=total damage to plant, 0=no damage to plant; for pest or weed control at 250 g/ha: 250 g ai/ha
How it was run: as §1

[3] = system: corn (Zea mays); assay: Test G Post-Emergence Protocol; settings: Zea mays, post-emergence, 312 h, read-out: Corn damage rating; for plant injury at 15.625 g/ha: 15.625 g ai/ha, evaluated after 13 days (100=total damage to plant; 0=no damage to plant); for plant injury at 62.5 g/ha: 62.5 g ai/ha; for plant injury at 62.5 g/ha / plant injury at 250 g/ha: evaluated after 13 days, 100=total damage to plant, 0=no damage to plant; for plant injury at 250 g/ha: 250 g ai/ha
How it was run: as §1

[4] = system: velvetleaf (Abutilon theophrasti); assay: Test G Post-Emergence Protocol; settings: Abutilon theophrasti, post-emergence, 312 h, read-out: Velvetleaf damage rating; for pest or weed control at 15.625 g/ha: 15.625 g ai/ha, evaluated after 13 days (100=total damage to plant; 0=no damage to plant); for pest or weed control at 62.5 g/ha: 62.5 g ai/ha; for pest or weed control at 62.5 g/ha / pest or weed control at 250 g/ha: evaluated after 13 days, 100=total damage to plant, 0=no damage to plant; for pest or weed control at 250 g/ha: 250 g ai/ha
How it was run: as §1

[5] = system: giant foxtail (Setaria faberi); assay: Test G Post-Emergence Protocol; settings: Setaria faberi, post-emergence, 312 h, read-out: Foxtail, Giant damage rating; for pest or weed control at 15.625 g/ha: 15.625 g ai/ha, evaluated after 13 days (100=total damage to plant; 0=no damage to plant); for pest or weed control at 62.5 g/ha: 62.5 g ai/ha; for pest or weed control at 62.5 g/ha / pest or weed control at 250 g/ha: evaluated after 13 days, 100=total damage to plant, 0=no damage to plant; for pest or weed control at 250 g/ha: 250 g ai/ha
How it was run: as §1

[6] = system: ivy-leaved morning glory (Ipomoea hederacea); assay: Test G Post-Emergence Protocol; settings: Ipomoea, post-emergence, 312 h, read-out: Morningglory, Ivy-leaved damage rating; for pest or weed control at 15.625 g/ha: 15.625 g ai/ha, evaluated after 13 days (100=total damage to plant; 0=no damage to plant); for pest or weed control at 62.5 g/ha: 62.5 g ai/ha; for pest or weed control at 62.5 g/ha / pest or weed control at 250 g/ha: evaluated after 13 days, 100=total damage to plant, 0=no damage to plant; for pest or weed control at 250 g/ha: 250 g ai/ha
How it was run: as §1

[7] = system: redroot pigweed (Amaranthus retroflexus); assay: Test G Pre-Emergence Protocol; settings: Amaranthus retroflexus, pre-emergence, 312 h, evaluated after 13 days; for pest or weed control at 15.625 g/ha: 15.625 g ai/ha; for pest or weed control at 15.625 g/ha / pest or weed control at 250 g/ha: read-out: Pigweed, Redroot damage rating (100=total damage to plant; 0=no damage to plant); for pest or weed control at 62.5 g/ha: 62.5 g ai/ha, 100=total damage to plant, 0=no damage to plant, read-out: Pigweed, Redroot damage rating; for pest or weed control at 250 g/ha: 250 g ai/ha
How it was run: (§2)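 Spraying took place one day after sowing, at 15.625, 62.5 or 250 g/ha, using an acetone/water (50:50) spray solution containing 0.5% Tween 20. Plants were kept under glasshouse conditions (24/16 °C, 14 h light, 65% humidity, watered twice daily), and injury was rated 0–100 at day 13.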

[8] = system: barnyardgrass (Echinochloa crus-galli); assay: Test G Pre-Emergence Protocol; settings: Echinochloa crus-galli, pre-emergence, 312 h, evaluated after 13 days; for pest or weed control at 15.625 g/ha: 15.625 g ai/ha; for pest or weed control at 15.625 g/ha / pest or weed control at 250 g/ha: read-out: Barnyardgrass damage rating (100=total damage to plant; 0=no damage to plant); for pest or weed control at 62.5 g/ha: 62.5 g ai/ha, 100=total damage to plant, 0=no damage to plant, read-out: Barnyardgrass damage rating; for pest or weed control at 250 g/ha: 250 g ai/ha
How it was run: as §2

[9] = system: corn (Zea mays); assay: Test G Pre-Emergence Protocol; settings: Zea mays, pre-emergence, 312 h, evaluated after 13 days; for plant injury at 15.625 g/ha: 15.625 g ai/ha; for plant injury at 15.625 g/ha / plant injury at 250 g/ha: read-out: Corn damage rating (100=total damage to plant; 0=no damage to plant); for plant injury at 62.5 g/ha: 62.5 g ai/ha, 100=total damage to plant, 0=no damage to plant, read-out: Corn damage rating; for plant injury at 250 g/ha: 250 g ai/ha
How it was run: as §2

[10] = system: velvetleaf (Abutilon theophrasti); assay: Test G Pre-Emergence Protocol; settings: Abutilon theophrasti, pre-emergence, 312 h, evaluated after 13 days; for pest or weed control at 15.625 g/ha: 15.625 g ai/ha; for pest or weed control at 15.625 g/ha / pest or weed control at 250 g/ha: read-out: Velvetleaf damage rating (100=total damage to plant; 0=no damage to plant); for pest or weed control at 62.5 g/ha: 62.5 g ai/ha, 100=total damage to plant, 0=no damage to plant, read-out: Velvetleaf damage rating; for pest or weed control at 250 g/ha: 250 g ai/ha
How it was run: as §2

[11] = system: giant foxtail (Setaria faberi); assay: Test G Pre-Emergence Protocol; settings: Setaria faberi, pre-emergence, 312 h, evaluated after 13 days; for pest or weed control at 15.625 g/ha: 15.625 g ai/ha; for pest or weed control at 15.625 g/ha / pest or weed control at 250 g/ha: read-out: Foxtail, Giant damage rating (100=total damage to plant; 0=no damage to plant); for pest or weed control at 62.5 g/ha: 62.5 g ai/ha, 100=total damage to plant, 0=no damage to plant, read-out: Foxtail, Giant damage rating; for pest or weed control at 250 g/ha: 250 g ai/ha
How it was run: as §2

[12] = system: ivy-leaved morning glory (Ipomoea hederacea); assay: Test G Pre-Emergence Protocol; settings: Ipomoea, pre-emergence, 312 h, evaluated after 13 days; for pest or weed control at 15.625 g/ha: 15.625 g ai/ha; for pest or weed control at 15.625 g/ha / pest or weed control at 250 g/ha: read-out: Morningglory, Ivy-leaved damage rating (100=total damage to plant; 0=no damage to plant); for pest or weed control at 62.5 g/ha: 62.5 g ai/ha, 100=total damage to plant, 0=no damage to plant, read-out: Morningglory, Ivy-leaved damage rating; for pest or weed control at 250 g/ha: 250 g ai/ha
How it was run: as §2

Row | Structure (SMILES) | pest or weed control at 15.625 g/ha [1] | pest or weed control at 62.5 g/ha [1] | pest or weed control at 250 g/ha [1] | pest or weed control at 15.625 g/ha [2] | pest or weed control at 62.5 g/ha [2] | pest or weed control at 250 g/ha [2] | plant injury at 15.625 g/ha [3] | plant injury at 62.5 g/ha [3] | plant injury at 250 g/ha [3] | pest or weed control at 15.625 g/ha [4] | pest or weed control at 62.5 g/ha [4] | pest or weed control at 250 g/ha [4] | pest or weed control at 15.625 g/ha [5] | pest or weed control at 62.5 g/ha [5] | pest or weed control at 250 g/ha [5] | pest or weed control at 15.625 g/ha [6] | pest or weed control at 62.5 g/ha [6] | pest or weed control at 250 g/ha [6] | pest or weed control at 15.625 g/ha [7] | pest or weed control at 62.5 g/ha [7] | also measured
1 | CN1C[C@H](c2ccc(C(F)(F)F)cc2)[C@@H](C(=O)Nc2cccnc2[S+](C)[O-])C1=O (mixture of isomers) [Compound 1788] | 0% | 10% | 20% | 0% | 0% | 0% | 0% | 10% | 10% | 0% | 10% | 20% | 0% | 0% | 0% | 0% | 0% | 40% | 0% | 0% | pest or weed control at 250 g/ha [7]: 0%; pest or weed control at 15.625 g/ha [8]: 0%; pest or weed control at 62.5 g/ha [8]: 0%; pest or weed control at 250 g/ha [8]: 20%; plant injury at 15.625 g/ha [9]: 0%; plant injury at 62.5 g/ha [9]: 0%; plant injury at 250 g/ha [9]: 0%; pest or weed control at 15.625 g/ha [10]: 0%; pest or weed control at 62.5 g/ha [10]: 0%; pest or weed control at 250 g/ha [10]: 0%; pest or weed control at 15.625 g/ha [11]: 0%; pest or weed control at 62.5 g/ha [11]: 0%; pest or weed control at 250 g/ha [11]: 0%; pest or weed control at 15.625 g/ha [12]: 0%; pest or weed control at 62.5 g/ha [12]: 0%; pest or weed control at 250 g/ha [12]: 0%
2 | Cc1c(F)cccc1NC(=O)[C@@H]1C(=O)N(C)C[C@H]1c1cccc(C(C)(C)O)c1 (racemic) [Compound 1819] | 0% | 0% | 10% | 0% | 20% | 80% | 0% | 0% | 20% | 0% | 0% | 0% | 0% | 40% | 80% | 0% | 0% | 50% | 0% | 0% | pest or weed control at 250 g/ha [7]: 20%; pest or weed control at 15.625 g/ha [8]: 0%; pest or weed control at 62.5 g/ha [8]: 60%; pest or weed control at 250 g/ha [8]: 90%; plant injury at 15.625 g/ha [9]: 0%; plant injury at 62.5 g/ha [9]: 0%; plant injury at 250 g/ha [9]: 60%; pest or weed control at 15.625 g/ha [10]: 0%; pest or weed control at 62.5 g/ha [10]: 0%; pest or weed control at 250 g/ha [10]: 10%; pest or weed control at 15.625 g/ha [11]: 20%; pest or weed control at 62.5 g/ha [11]: 80%; pest or weed control at 250 g/ha [11]: 90%; pest or weed control at 15.625 g/ha [12]: 0%; pest or weed control at 62.5 g/ha [12]: 0%; pest or weed control at 250 g/ha [12]: 0%
